Laboratory results reported in patent US9951065B2 (Gilead Sciences, Inc., priority 2015, dated 2018).

target: T1, IDO1 (Homo sapiens, UniProt P14902); assay: Cell-based (HeLa) assay for measurement of IDO1 inhibition (kynurenine levels in supernatant after IFNγ induction); details: HeLa cells, IFNγ-induced IDO1, kynurenine in supernatant after 48 hour incubation; geometric mean of a minimum of four determinations
T1 construct: HeLa cells were treated with a test compound in the presence of IFNγ, which induces IDO1 expression; host or cells: H1-HeLa cells, IDO1 induced with IFNγ
In short: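 HeLa cells, 1,250 per well, treated with compound (0.5% DMSO final) plus IFNγ to induce IDO1, for 48 h. Supernatant kynurenine measured by TCA hydrolysis at 60 °C, then p-dimethylaminobenzaldehyde, absorbance 480 nm. EC50 from a four-parameter fit normalized to −/+IFNγ controls; geometric mean of at least four runs.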

T1 sequence (P14902 whole entry): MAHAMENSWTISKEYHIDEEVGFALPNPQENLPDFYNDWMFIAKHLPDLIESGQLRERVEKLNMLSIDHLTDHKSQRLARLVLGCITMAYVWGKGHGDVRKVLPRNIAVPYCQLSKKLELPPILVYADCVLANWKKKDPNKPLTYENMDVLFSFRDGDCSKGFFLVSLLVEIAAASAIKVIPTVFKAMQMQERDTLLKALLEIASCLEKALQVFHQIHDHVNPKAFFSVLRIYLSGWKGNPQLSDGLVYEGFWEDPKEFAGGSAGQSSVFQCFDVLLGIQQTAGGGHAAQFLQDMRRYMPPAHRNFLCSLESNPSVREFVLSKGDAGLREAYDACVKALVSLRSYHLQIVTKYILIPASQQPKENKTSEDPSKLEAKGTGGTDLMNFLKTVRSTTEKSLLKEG

| Compound | EC50 [µM] |
| --- | --- |
| COCCCNCc1nc2c(/C(=N/O)Nc3ccc(F)c(Cl)c3)cc(F)c(F)c2[nH]1 [Example 45, N-(3-Chloro-4-fluorophenyl)-6,7-difluoro-N′-hydroxy-2-(((3-methoxypropyl)amino)methyl)-1H-benzo[d]imidazole-4-carboximidamide] | 1.32 |
| O/N=C(\Nc1ccc(Br)cc1)c1ccnc2nc[nH]c12 [Example 88, N-(4-Bromophenyl)-N′-hydroxy-1H-imidazo[4,5-b]pyridine-7-carboximidamide] | 0.916 |
| NCc1nc2c(F)c(F)cc(/C(=N/O)Nc3cccc(Cl)c3)c2[nH]1 [Example 31, 2-(Aminomethyl)-N-(3-chlorophenyl)-4,5-difluoro-N′-hydroxy-1H-benzo[d]imidazole-7-carboximidamide] | 1.68 |
| COc1ccc(CNCCc2nc3nccc(/C(=N/O)Nc4ccc(F)c(Cl)c4)c3[nH]2)c(OC)c1 [Example 274, N-(3-chloro-4-fluorophenyl)-2-(2-((2,4-dimethoxybenzyl)amino)ethyl)-N′-hydroxy-1H-imidazo[4,5-b]pyridine-7-carboximidamide] | 1.97 |
| O=c1onc(-c2ccnc3nc(CO)[nH]c23)n1-c1ccc(F)c(Cl)c1 [Example 111, 4-(3-Chloro-4-fluorophenyl)-3-(2-(hydroxymethyl)-1H-imidazo[4,5-b]pyridin-7-yl)-1,2,4-oxadiazol-5(4H)-one] | 4.45 |
| COc1cc(N/C(=N\O)c2ccnc3nc[nH]c23)ccc1F [Example 106, N-(4-Fluoro-3-methoxyphenyl)-N′-hydroxy-1H-imidazo[4,5-b]pyridine-7-carboximidamide] | 5.54 |
| Cc1ccc(N/C(=N\O)c2ccnc3nc[nH]c23)cc1 [Example 94, N′-Hydroxy-N-(p-tolyl)-1H-imidazo[4,5-b]pyridine-7-carboximidamide] | 6.35 |
| O/N=C(\Nc1ccc(F)cc1)c1ccnc2nc[nH]c12 [Example 89, N-(4-Fluorophenyl)-N′-hydroxy-1H-imidazo[4,5-b]pyridine-7-carboximidamide] | 0.943 |
| O/N=C(\Nc1ccc(C(F)(F)F)cc1)c1ccnc2nc[nH]c12 [Example 91, N′-Hydroxy-N-(4-(trifluoromethyl)phenyl)-1H-imidazo[4,5-b]pyridine-7-carboximidamide] | 2.24 |

Further lines, results first:

| EC50 [µM] | Compound |
| --- | --- |
| 1.12 | O/N=C(\Nc1ccc(F)c(Cl)c1)c1ccnc2nc(NCCN3CCC3)[nH]c12 [Example 233, 2-((2-(azetidin-1-yl)ethyl)amino)-N-(3-chloro-4-fluorophenyl)-N′-hydroxy-1H-imidazo[4,5-b]pyridine-7-carboximidamide] |
| 0.602 | O/N=C(\Nc1cccc(Cl)c1)c1ccnc2nc(CCN3CCCCC3)[nH]c12 [Example 271, N-(3-chlorophenyl)-N′-hydroxy-2-(2-(piperidin-1-yl)ethyl)-1H-imidazo[4,5-b]pyridine-7-carboximidamide] |
| 3.83 | COCCN(C)CCNc1nc2nccc(/C(=N/O)Nc3ccc(F)c(Cl)c3)c2[nH]1 [Example 219, N-(3-chloro-4-fluorophenyl)-N′-hydroxy-2-((2-((2-methoxyethyl)(methyl)amino)ethyl)amino)-1H-imidazo[4,5-b]pyridine-7-carboximidamide] |
| 1.48 | CNCc1nc2nccc(/C(=N/O)Nc3ccc(F)c(Cl)c3)c2[nH]1 [Example 178, N-(3-Chloro-4-fluorophenyl)-N′-hydroxy-2-((methylamino)methyl)-1H-imidazo[4,5-b]pyridine-7-carboximidamide] |
| 4.02 | O/N=C(\Nc1ccc(F)c(Cl)c1)c1ccnc2nc(NC3CC(F)(F)C3)[nH]c12 [Example 162, N-(3-Chloro-4-fluorophenyl)-2-((3,3-difluorocyclobutyl)amino)-N′-hydroxy-1H-imidazo[4,5-b]pyridine-7-carboximidamide] |
| 1.34 | CN1CCC(Nc2nc3nccc(/C(=N/O)Nc4ccc(F)c(Cl)c4)c3[nH]2)C1 (stereo not shown) [Example 203, N-(3-Chloro-4-fluorophenyl)-N′-hydroxy-2-[(1-methylpyrrolidin-3-yl)amino]-1H-imidazo[4,5-b]pyridine-7-carboximidamide] |
| 0.618 | O/N=C(\Nc1ccc(F)c(Cl)c1)c1ccnc2nc(CCN3CC4CCCC(C4)C3)[nH]c12 [Example 276, 2-(2-(3-azabicyclo[3.3.1]nonan-3-yl)ethyl)-N-(3-chloro-4-fluorophenyl)-N′-hydroxy-1H-imidazo[4,5-b]pyridine-7-carboximidamide] |

same assay, conditions: HeLa cells, IFNγ-induced IDO1, kynurenine in supernatant, 48 hour incubation; geometric mean of a minimum of four determinations

| Compound | EC50 [µM] |
| --- | --- |
| CN(CCNc1nc2c(F)c(F)cc(/C(=N/O)Nc3ccc(F)c(Cl)c3)c2[nH]1)Cc1ccccc1 [Example 390, 2-((2-(benzyl(methyl)amino)ethyl)amino)-N-(3-chloro-4-fluorophenyl)-4,5-difluoro-N′-hydroxy-W-benzo[d]imidazole-7-carboximidamide] | 1.02 |
| O=S1(=O)CCN(CCNc2nc3c(F)c(F)cc(/C(=N/O)Nc4ccc(F)c(Cl)c4)c3[nH]2)CC1 [Example 374, N-(3-chloro-4-fluorophenyl)-2-((2-(1,1-dioxidothiomorpholino)ethyl)amino)-4,5-difluoro-N′-hydroxy-1H-benzo[d]imidazole-7-carboximidamide] | 2.4 |
| CN(C)CCNc1nc2c(F)ccc(/C(=N/O)Nc3cccc(Cl)c3)c2[nH]1 [Example 384, N-(3-chlorophenyl)-2-((2-(dimethylamino)ethyl)amino)-4-fluoro-N′-hydroxy-1H-benzo[d]imidazole-7-carboximidamide] | 0.29 |
| N[C@@H]1CCCC[C@@H]1Nc1nc2c(F)c(F)cc(/C(=N/O)Nc3ccc(F)c(Cl)c3)c2[nH]1 [Example 474, 2-(((1S,2R)-2-aminocyclohexyl)amino)-N-(3-chloro-4-fluorophenyl)-4,5-difluoro-N′-hydroxy-1H-benzo[d]imidazole-7-carboximidamide] | 7.58 |
| CN(C)CC(O)CNc1nc2c(F)c(F)cc(/C(=N/O)Nc3ccc(F)c(Cl)c3)c2[nH]1 (stereo not shown) [Example 448, N-(3-chloro-4-fluorophenyl)-2-((3-(dimethylamino)-2-hydroxypropyl)amino)-4,5-difluoro-N′-hydroxy-1H-benzo[d]imidazole-7-carboximidamide] | 1.12 |

The next lines start with the values.

| EC50 [µM] | Compound |
| --- | --- |
| 0.561 | O/N=C(\Nc1ccc(F)c(Cl)c1)c1ccnc2nc(NCCNC3CC3)[nH]c12 [Example 402, N-(3-chloro-4-fluorophenyl)-2-((2-(cyclopropylamino)ethyl)amino)-N′-hydroxy-1H-imidazo[4,5-b]pyridine-7-carboximidamide] |
| 2.88 | CN1CCC(Nc2nc3c(F)c(F)cc(/C(=N/O)Nc4ccc(F)c(Cl)c4)c3[nH]2)CC1 [Example 442, N-(3-chloro-4-fluorophenyl)-4,5-difluoro-N′-hydroxy-2-((1-methylpiperidin-4-yl)amino)-1H-benzo[d]imidazole-7-carboximidamide] |
| > 10 | CC(=O)NCCNc1nc2nccc(/C(=N/O)Nc3ccc(F)c(Cl)c3)c2[nH]1 [Example 404, N-(2-((7-(N-(3-chloro-4-fluorophenyl)-N′-hydroxycarbamimidoyl)-1H-imidazo[4,5-b]pyridin-2-yl)amino)ethyl)acetamide] |
| 5.66 | NS(=O)(=O)CCNc1nc2nccc(/C(=N/O)Nc3ccc(F)c(Cl)c3)c2[nH]1 [Example 492, N-(3-chloro-4-fluorophenyl)-N′-hydroxy-2-((2-sulfamoylethyl)amino)-1H-imidazo[4,5-b]pyridine-7-carboximidamide] |
